{
  "source": "patent US20160281050A1",
  "about": "“METHODS FOR TREATING A CULTURE OF HAEMATOCOCCUS PLUVIALIS FOR CONTAMINATION USING SALT AND HYDROGEN PEROXIDE” (HELIAE DEVELOPMENT LLC, priority 2015, published 2016)",
  "key": {"[1]": {"tested_on": "Haematococcus pluvialis (Strain 1) green swimmer cells", "test": "Commercial scale cultures: lysis, carotenoid content (UV), average growth rate (Example 5)", "conditions": "for Maximum % Lysis of Culture: 0.007 mL/L every six hours", "source_text": "The findings from the flask test samples were then applied to commercial scale cultures of Haematococcus pluvialis (Strain 1) containing green swimmer cells that were transferred from open raceway pond bioreactor #2310 disposed in a greenhouse, using paddlewheel mixing, and operating in conditions: reactor volume of 55,000 L; Daily PAR of 42 mol m^−2 d^−1; pH of 7.5; and paddlewheel speed of 40%; to open raceway pond bioreactor #2420 disposed in a greenhouse, using paddlewheel mixing, operating in conditions: reactor volume of 140,000 L; Daily PAR of 40 mol m^−2 d^−1; pH of 7.3; and paddlewheel speed of 70%. Similarly, the culture in bioreactor #2320, operating in conditions: reactor volume of 60,000 L; Daily PAR of 42 mol m^−2 d^−1; pH of 7.5; and paddlewheel speed of 40%; was transferred by being split into pond bioreactors #2410 and 2430 operating in conditions: reactor volume of 150,000 L; Daily PAR of 40 mol m^−2 d^−1; pH of 7.3; and paddlewheel speed of 70%. […] Lysis was quantified upon harvest of the culture through visual observation of samples under a microscope. Carotenoid content of the cells was measured by UV method upon harvest, and the average growth rate of the culture was calculated based on periodic dry weight samples. The results were compared to data from previous culture runs in the same bioreactors or bioreactors with similar operating conditions during the same month (September 2014) at the same location."}, "[2]": {"tested_on": "Haematococcus pluvialis (Strain 1) green swimmer cells", "source_text": "Haematococcus pluvialis cultures containing green swimmer cells in open raceway pond bioreactors [identification numbers (#) 2210 and 2220] disposed in a greenhouse, using paddlewheel mixing, and operating in conditions: reactor volume of 16,000 L; Daily photosynthetically active radiation (PAR) of 57 mol m^−2 d^−1; pH of 7.5; and paddlewheel speed of 40%; were inoculated on the same day and cultured in growth conditions.\nThe culture of bioreactor #2330 was transferred to open raceway pond bioreactor #2420 disposed in a greenhouse, using paddlewheel mixing, and operating in conditions: reactor volume of 140,000 L; Daily PAR of 58 mol m^−2 d^−1; pH of 7.3; and paddlewheel speed of 70%); but the culture was not treated after the transfer. […] Bacteria including Pseudomonas, Flectobacillus, and Cytophaga were present in the bacterial community in both the bioreactors #2330 and #2420."}, "[3]": {"conditions": "bioreactor #2220, 0.0075 mL/L every 24 hours"}},
  "note": "Read-outs that look alike come from different tables or passages of the source.",
  "data": [
    {"substance": "hydrogen peroxide [H2O2]", "values": [
      {"measurement": "Maximum % Lysis of Culture", "setting": "[1]; Bioreactor 2410", "value": 70, "unit": "%"},
      {"measurement": "Maximum % Lysis of Culture", "setting": "[1]; Bioreactor 2420", "value": 20, "unit": "%"},
      {"measurement": "Maximum % Lysis of Culture", "setting": "[1]; Bioreactor 2430", "value": 35, "unit": "%"},
      {"measurement": "reduction of the level of cell lysis", "setting": "[1]; at least 0.007 mL/L every 6 hours, flask tests and commercial scale cultures together", "value": "at least 60%"},
      {"measurement": "lysis", "setting": "[1]; two of the commercial scale cultures treated with hydrogen peroxide", "value": "20-35%"},
      {"measurement": "duration of high motility compared with untreated culture #2210", "setting": "[2]; [3]", "value": "one day longer"},
      {"measurement": "motility retained", "setting": "[2]; [3]", "value": 95, "unit": "%"},
      {"measurement": "time of chytrid detection compared with untreated culture #2310", "setting": "[2]; bioreactor #2320, 0.0075 mL/L every 24 hours", "value": "three days later"},
      {"measurement": "onset of high amounts of cell lysis", "setting": "[2]; bioreactor #2320, treated culture", "value": "not until five days after the treatment ended"},
      {"measurement": "decrease of motility", "setting": "[2]; bioreactor #2330, 0.0075 mL/L, after the first treatment", "value": "about 30%"},
      {"measurement": "lysis", "setting": "[2]; bioreactor #2330, 0.0075 mL/L, after the second treatment", "value": 60, "unit": "%"},
      {"measurement": "Chytrid sporangia present, time after hydrogen peroxide treatment ended", "setting": "[2]; bioreactors #2330/#2420, end of the culture period", "value": 7, "unit": "days"},
      {"measurement": "Chytrid sporangia in the culture", "setting": "[2]; bioreactors #2330/#2430, 0.0075 mL/L once before and twice after transfer", "value": "not detected"},
      {"measurement": "time high amounts of cell lysis remained high", "setting": "[2]; bioreactors #2330/#2430, treatment began after lysis had occurred", "value": 4, "unit": "days"}
    ]}
  ]
}
